Assay results reported in patent US20070197522A1, “Dpp-iv inhibitors” (priority 2004, published 2007).
Counter-ions that a name gives are not always drawn.

Molecular target: T1, DPP-IV (Homo sapiens, UniProt P27487)
T1 construct: Soluble human DPP-IV lacking the transmembrane anchor (Gly31-Pro766) was expressed in a recombinant YEAST-strain; Pre-Pro-alpha-mating factor leader (secretion fusion) (N, cleaved yes); made in house
Test: Inhibition of DPP-IV peptidase activity, continuous fluorimetric assay (Gly-Pro-AMC cleavage)
Type: biochemical, human and porcine
Conditions: inhibition of DPP-IV peptidase activity; 50 pM DPP-IV, 16 μM Gly-Pro-AMC, pH 7.4, 25° C.; values grouped in 3 classes; read-out: IC50
Method: Inhibition of DPP-IV peptidase activity was monitored with a continuous fluorimetric assay. This assay is based on the cleavage of the substrate Gly-Pro-AMC (Bachem) by DPP-IV, releasing free AMC. The assay is carried out in 96-well microtiterplates. In a total volume of 100 μL, compounds are preincubated with 50 pM DPP-IV employing a buffer containing 10 mM Hepes, 150 mM NaCl, 0.005% Tween 20 (pH 7.4). […] The final concentration of DMSO is 1%. The inhibitory potential of the compounds were determined.
Soluble human DPP-IV lacking the transmembrane anchor (Gly31-Pro766) was expressed in a recombinant YEAST-strain as Pre-Pro-alpha-mating fusion. The secreted product (rhuDPP-IV-Gly31-Pro766) was purified from fermentation broth (>90% purity).

T1 sequence (P27487 31-766): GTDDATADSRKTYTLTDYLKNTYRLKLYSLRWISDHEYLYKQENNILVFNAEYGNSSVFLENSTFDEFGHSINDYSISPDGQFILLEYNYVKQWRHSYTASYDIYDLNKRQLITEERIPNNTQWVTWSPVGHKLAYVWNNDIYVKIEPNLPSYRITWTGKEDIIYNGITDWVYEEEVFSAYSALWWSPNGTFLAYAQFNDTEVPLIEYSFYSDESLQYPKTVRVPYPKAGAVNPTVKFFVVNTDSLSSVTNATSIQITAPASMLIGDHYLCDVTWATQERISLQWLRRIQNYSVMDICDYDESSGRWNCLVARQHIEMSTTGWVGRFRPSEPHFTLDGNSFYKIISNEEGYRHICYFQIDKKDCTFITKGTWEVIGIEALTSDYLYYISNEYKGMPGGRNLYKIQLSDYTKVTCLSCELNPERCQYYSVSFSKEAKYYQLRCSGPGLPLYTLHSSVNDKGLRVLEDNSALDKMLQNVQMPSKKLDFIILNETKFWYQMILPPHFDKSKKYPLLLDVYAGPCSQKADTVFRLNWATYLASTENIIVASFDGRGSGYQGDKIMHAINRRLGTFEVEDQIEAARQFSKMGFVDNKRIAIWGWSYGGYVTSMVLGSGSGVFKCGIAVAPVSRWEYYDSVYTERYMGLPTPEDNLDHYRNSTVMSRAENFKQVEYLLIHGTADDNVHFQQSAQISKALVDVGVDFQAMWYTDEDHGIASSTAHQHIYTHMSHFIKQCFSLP

SMILES	IC50 [µM]
COc1ccc(CCNC(=O)C[C@H](N)Cc2ccccc2F)cc1 [Example 98]	1 to 2
N[C@@H](CC(=O)NCc1c(Cl)cccc1Oc1ccccc1)Cc1ccccc1F [Example 71]	0.101 to 1
N[C@@H](CC(=O)NCC(c1ccccc1Cl)N1CCOCC1)Cc1ccccc1F (stereo partly drawn) [Example 156]	0.101 to 1
COc1ccccc1CCNC(=O)C[C@H](N)Cc1ccccc1F [Example 97]	1 to 2
CN(Cc1cn2ccccc2n1)C(=O)C[C@H](N)Cc1ccccc1F [Example 175]	1 to 2
CN(Cc1cccnc1)C(=O)C[C@H](N)Cc1ccccc1F [Example 122]	0.101 to 1
N[C@@H](CC(=O)NCc1ccc(S(N)(=O)=O)cc1)Cc1ccccc1F [Example 147]	0.101 to 1
NC(CC(=O)NC1c2ccccc2CC1O)Cc1ccccc1F (stereo not drawn) [Example 43]	1 to 2
Cc1ccc(CNC(=O)C[C@H](N)Cc2ccccc2F)cc1 [Example 115]	0.101 to 1
N[C@@H](CC(=O)NCc1cccc(Cl)c1)Cc1ccccc1F [Example 70]	0.101 to 1
N[C@@H](CC(=O)NCC1OCCc2ccccc21)Cc1ccccc1F (single isomer, unassigned) [Example 67]	0.101 to 1
N[C@@H](CC(=O)NCCc1ccccc1F)Cc1ccccc1F [Example 113]	0.101 to 1
N[C@@H](CC(=O)NCc1cc(F)cc(F)c1)Cc1ccccc1F [Example 46]	0.101 to 1
N[C@@H](CC(=O)NCc1cc(Cl)ccc1Cl)Cc1ccccc1F [Example 51]	0.101 to 1
CC(CNC(=O)C[C@H](N)Cc1ccccc1F)c1ccc(Cl)cc1 (single isomer, unassigned) [Example 107]	0.101 to 1
N[C@@H](CC(=O)NCc1cccc(OC(F)F)c1)Cc1ccccc1F [Example 139]	0.101 to 1
N[C@@H](CC(=O)NCc1ccccn1)Cc1ccccc1F [Example 52]	0.101 to 1
N[C@@H](CC(=O)NCc1cccnc1)Cc1ccccc1F [Example 58]	0.101 to 1
Cn1c(CNC(=O)C[C@H](N)Cc2ccccc2F)nc2ccccc21 [Example 146]	0.101 to 1

SMILES	IC50 [µM]
N[C@@H](CC(=O)NC(CN1CCCC1)c1ccccc1Cl)Cc1ccccc1F (single isomer, unassigned) [Example 90]	< 0.1
CC(C)[C@H](NC(=O)C[C@H](N)Cc1cc(F)c(F)cc1F)c1nc(C2CC2)no1 [Example 29, (R)-3-Amino-N—[(S)-1-(3-cyclopropyl-[1,2,4]oxadiazol-5-yl)-2-methyl-propyl]-4-(2,4,5-trifluoro-phenyl)-butyramide. Formic Acid Salt]	< 0.1
CSc1ccccc1CN(C)C(=O)C[C@H](N)Cc1ccccc1F [Example 38, 3-Amino-4-(2-fluoro-phenyl)-N-methyl-N-(2-methylsulfanyl-benzyl)-butyramide Hydrochloride]	0.101 to 1
N[C@@H](CC(=O)NCC(c1cccc(Cl)c1)N1CCOCC1)Cc1ccccc1F (stereo partly drawn) [Example 157]	0.101 to 1
CN1CCN(CC(NC(=O)C[C@H](N)Cc2ccccc2F)c2ccccc2)CC1 (stereo partly drawn) [Example 159]	0.101 to 1
N[C@@H](CC(=O)NCc1cccc(-c2ccccc2)c1)Cc1ccccc1F [Example 64]	1 to 2
NC(=O)c1cccc(CNC(=O)C[C@H](N)Cc2ccccc2F)c1 [Example 30, 3-{[(3R)-3-Amino-4-(2-fluoro-phenyl)-butyrylamino]-methyl}-benzamide Trifluoroacetate Salt]	0.101 to 1
N[C@@H](CC(=O)NCc1ccc2c(c1)OCCO2)Cc1ccccc1F [Example 61]	0.101 to 1
N[C@@H](CC(=O)NCCc1ccc(F)cc1)Cc1ccccc1F [Example 110]	1 to 2
N[C@@H](CC(=O)NCc1cccc(Oc2ccccc2)c1)Cc1ccccc1F [Example 77]	0.101 to 1
CN(Cc1cccc(C(F)(F)F)c1)C(=O)C[C@H](N)Cc1ccccc1F [Example 124]	0.101 to 1
C[C@@H](CNC(=O)C[C@H](N)Cc1ccccc1F)c1ccccc1 [Example 94]	0.101 to 1
N[C@@H](CC(=O)NCc1ccccc1C(F)(F)F)Cc1ccccc1F [Example 69]	1 to 2
N[C@@H](CC(=O)NCCc1ccccc1Cl)Cc1ccccc1F [Example 96]	0.101 to 1
NC(CC(=O)NC1CCc2ccccc21)Cc1ccccc1F (stereo not drawn) [Example 120]	1 to 2
N[C@@H](CC(=O)NCCc1ccc(Cl)cc1)Cc1ccccc1F [Example 95]	0.101 to 1
N[C@@H](CC(=O)NCCc1ccc(S(N)(=O)=O)cc1)Cc1ccccc1F [Example 104]	0.101 to 1
N[C@@H](CC(=O)NCC(c1ccccc1Cl)N1CCCC1)Cc1ccccc1F (single isomer, unassigned) [Example 132]	0.101 to 1
N[C@H](Cc1ccccc1F)CS(=O)(=O)NCc1cccc(C(F)(F)F)c1 [Example 192, (R)-2-Amino-3-(2-fluoro-phenyl)-propane-1-sulphonic acid 3-trifluoromethyl-benzyl-amide]	0.101 to 1

SMILES	IC50 [µM]
CN(Cc1ccccc1)C(=O)C[C@H](N)Cc1ccccc1F [Example 121]	0.101 to 1
Cc1onc(-c2ccccc2)c1CNC(=O)C[C@H](N)Cc1ccccc1F [Example 149]	0.101 to 1
CS(=O)(=O)c1ccc(CNC(=O)C[C@H](N)Cc2ccccc2F)cc1 [Example 141]	0.101 to 1
NC(CC(=O)NCC(c1ccc(Cl)cc1)N1CCOCC1)Cc1ccccc1F (stereo not drawn) [Example 158]	0.101 to 1
COc1cccc(CCNC(=O)C[C@H](N)Cc2ccccc2F)c1 [Example 81]	1 to 2
N[C@@H](CC(=O)NC(CN1CCCC1)c1ccccc1)Cc1ccccc1F (single isomer, unassigned) [Example 91]	0.101 to 1
N[C@@H](CC(=O)NCc1cccc(-n2cccn2)c1)Cc1ccccc1F [Example 171]	0.101 to 1
CN(Cc1ccc(F)cc1)C(=O)C[C@H](N)Cc1ccccc1F [Example 125]	0.101 to 1
N[C@H](Cc1ccccc1F)CS(=O)(=O)NCc1ccc(C(F)(F)F)nc1 [Example 191, (R)-2-Amino-3-(2-fluoro-phenyl)-Propane-1-sulphonic acid (6-trifluoromethyl-pyridin-3-ylmethyl)-amide]	0.101 to 1
NC(CC(=O)NCCc1cccc(F)c1)Cc1ccccc1F (stereo not drawn) [Example 111]	1 to 2
COc1ccc([C@@H](C)NC(=O)C[C@H](N)Cc2ccccc2F)cc1 [Example 99]	1 to 2
C[C@H](CNC(=O)C[C@H](N)Cc1ccccc1F)c1ccccc1 [Example 93]	1 to 2
N[C@@H](CC(=O)NCc1cccc(C(=O)NCc2ccc(S(N)(=O)=O)cc2)c1)Cc1ccccc1F [Example 35]	0.101 to 1
N[C@@H](CC(=O)NCCc1ccc(Cl)c(Cl)c1)Cc1ccccc1F [Example 92]	0.101 to 1
COc1cccc(C(C)NC(=O)CC(N)Cc2ccccc2F)c1 (stereo not drawn) [Example 102]	1 to 2
N[C@@H](CC(=O)NC(Cc1ccccc1)c1ccccc1)Cc1ccccc1F (single isomer, unassigned) [Example 74]	0.101 to 1
N[C@@H](CC(=O)NCc1ccc(Cl)cc1Cl)Cc1ccccc1F [Example 44]	0.101 to 1
Cc1cc(CNC(=O)C[C@H](N)Cc2ccccc2F)no1 [Example 62]	0.101 to 1
N[C@@H](CC(=O)NCCc1ccccc1)Cc1ccccc1F [Example 50]	0.101 to 1
